# From ChEMBL document CHEMBL4680277, “Targeting Metabolism of Extracellular Nucleotides via Inhibition of Ectonucleotidases CD73 and CD39” (J Med Chem, 2020)
# Assays:
# 5'-nucleotidase [1] = biological target: T1, 5'-nucleotidase (Homo sapiens, UniProt P21589); assay: Inhibition of human CD73 expressed in CHO cells using AMP as substrate preincubated for 10 mins followed by substrate addition and measured every minute for 10 to 20 mins by PNP coupled enzyme assay; assay type: cell-based
# 5'-nucleotidase [2] = biological target: T1, 5'-nucleotidase; assay: Inhibition of human C-terminal 6His-tagged CD73 (1 to 547 residues) expressed in HEK293F cells using 2 uM AMP as substrate by rapidfire mass spectrometry assay
# 5'-nucleotidase [3] = biological target: T1, 5'-nucleotidase; assay: Inhibition of human C-terminal 6His-tagged CD73 ( Trp27 to Lys547 residues) expressed in CHO cells using CMP as substrate incubated for 20 mins by malachite Green assay
# [4] = biological target: T2, Ectonucleoside triphosphate diphosphohydrolase 1 (Homo sapiens, UniProt P49961); assay: Inhibition of human CD39 using ATP as substrate preincubated for 3 mins followed by substrate addition and measured after 10 to 15 mins by Cheng-Prusoff analysis; details: read-out: Ki(app)
# T2 sequence (P49961 whole entry): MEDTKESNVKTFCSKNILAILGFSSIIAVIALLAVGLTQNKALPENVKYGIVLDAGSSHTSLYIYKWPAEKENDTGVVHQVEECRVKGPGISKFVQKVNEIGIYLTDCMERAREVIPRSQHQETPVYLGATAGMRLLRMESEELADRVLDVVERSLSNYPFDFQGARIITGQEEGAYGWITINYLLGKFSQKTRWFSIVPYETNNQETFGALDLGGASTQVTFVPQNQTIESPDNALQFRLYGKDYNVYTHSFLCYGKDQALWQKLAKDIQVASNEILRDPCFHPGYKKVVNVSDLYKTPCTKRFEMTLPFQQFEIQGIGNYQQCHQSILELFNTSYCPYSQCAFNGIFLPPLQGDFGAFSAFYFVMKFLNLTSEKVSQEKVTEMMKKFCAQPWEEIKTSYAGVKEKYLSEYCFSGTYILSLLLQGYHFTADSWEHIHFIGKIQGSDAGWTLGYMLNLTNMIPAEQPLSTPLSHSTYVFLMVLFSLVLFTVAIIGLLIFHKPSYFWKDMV
# [5] = biological target: T2, Ectonucleoside triphosphate diphosphohydrolase 1; assay: Inhibition of human CD39 using ATP as substrate preincubated for 3 mins followed by substrate addition and measured after 10 to 15 mins by Malachite green reagent based assay
# [6] = biological target: T2, Ectonucleoside triphosphate diphosphohydrolase 1; assay: Inhibition of human CD39 using ATP as substrate preincubated for 3 mins followed by substrate addition and measured after 10 to 15 mins by Dixon and Cornish-Bowden plot analysis; details: read-out: Ki(app)
# Rattus norvegicus = species: Rattus norvegicus; assay: Inhibition of ecto-ATPase in Wistar rat cardiac synaptosomes assessed as reduction in ATP hydrolysis at 100 uM preincubated for 10 min followed by ATP addition and measured after 6 mins relative to control; assay type: subcellular; details: Heart, time 16.0 min
# [7] = biological target: T3, Ectonucleoside triphosphate diphosphohydrolase 1 (Rattus norvegicus, UniProt P97687); assay: Inhibition of rat CD39 expressed in CHO cells using ATP as substrate incubated for 10 mins by UV absorbance method; assay type: cell-based
# T3 sequence (P97687 whole entry): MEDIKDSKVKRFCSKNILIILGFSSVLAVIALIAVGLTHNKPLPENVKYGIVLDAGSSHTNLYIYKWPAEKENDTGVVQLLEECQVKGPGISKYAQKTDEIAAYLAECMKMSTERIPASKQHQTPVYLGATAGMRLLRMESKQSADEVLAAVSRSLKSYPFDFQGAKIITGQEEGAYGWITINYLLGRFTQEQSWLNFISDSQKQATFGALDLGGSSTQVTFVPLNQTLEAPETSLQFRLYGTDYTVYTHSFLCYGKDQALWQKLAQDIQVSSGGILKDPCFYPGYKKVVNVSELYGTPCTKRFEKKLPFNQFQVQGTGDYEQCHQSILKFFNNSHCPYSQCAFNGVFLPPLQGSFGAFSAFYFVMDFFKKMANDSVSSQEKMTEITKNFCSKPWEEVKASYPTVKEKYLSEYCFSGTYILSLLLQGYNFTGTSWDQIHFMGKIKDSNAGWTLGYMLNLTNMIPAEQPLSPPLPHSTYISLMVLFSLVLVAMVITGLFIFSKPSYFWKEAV
# [8] = biological target: T4, Ectonucleoside triphosphate diphosphohydrolase 2 (Rattus norvegicus, UniProt O35795); assay: Inhibition of rat NTPDase2 expressed in CHO cells using ATP as substrate incubated for 10 mins by UV absorbance method; assay type: cell-based
# T4 sequence (O35795 whole entry): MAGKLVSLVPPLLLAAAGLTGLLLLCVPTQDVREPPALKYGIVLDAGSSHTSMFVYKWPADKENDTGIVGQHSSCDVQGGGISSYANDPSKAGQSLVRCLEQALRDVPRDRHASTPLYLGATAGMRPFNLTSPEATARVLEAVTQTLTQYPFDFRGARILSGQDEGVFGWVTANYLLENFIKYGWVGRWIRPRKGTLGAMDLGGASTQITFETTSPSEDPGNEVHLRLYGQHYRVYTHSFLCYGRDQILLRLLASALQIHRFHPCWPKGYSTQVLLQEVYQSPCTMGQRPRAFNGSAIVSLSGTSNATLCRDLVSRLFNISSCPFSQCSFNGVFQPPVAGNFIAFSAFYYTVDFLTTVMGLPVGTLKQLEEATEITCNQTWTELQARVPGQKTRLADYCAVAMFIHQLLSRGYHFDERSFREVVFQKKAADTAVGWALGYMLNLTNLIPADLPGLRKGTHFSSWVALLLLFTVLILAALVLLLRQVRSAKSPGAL
# [9] = Inhibition of rat NTPDase3 expressed in CHO cells using ATP as substrate incubated for 10 mins by UV absorbance method; assay type: cell-based
# T1 sequence (P21589 whole entry, the tested form may be a part): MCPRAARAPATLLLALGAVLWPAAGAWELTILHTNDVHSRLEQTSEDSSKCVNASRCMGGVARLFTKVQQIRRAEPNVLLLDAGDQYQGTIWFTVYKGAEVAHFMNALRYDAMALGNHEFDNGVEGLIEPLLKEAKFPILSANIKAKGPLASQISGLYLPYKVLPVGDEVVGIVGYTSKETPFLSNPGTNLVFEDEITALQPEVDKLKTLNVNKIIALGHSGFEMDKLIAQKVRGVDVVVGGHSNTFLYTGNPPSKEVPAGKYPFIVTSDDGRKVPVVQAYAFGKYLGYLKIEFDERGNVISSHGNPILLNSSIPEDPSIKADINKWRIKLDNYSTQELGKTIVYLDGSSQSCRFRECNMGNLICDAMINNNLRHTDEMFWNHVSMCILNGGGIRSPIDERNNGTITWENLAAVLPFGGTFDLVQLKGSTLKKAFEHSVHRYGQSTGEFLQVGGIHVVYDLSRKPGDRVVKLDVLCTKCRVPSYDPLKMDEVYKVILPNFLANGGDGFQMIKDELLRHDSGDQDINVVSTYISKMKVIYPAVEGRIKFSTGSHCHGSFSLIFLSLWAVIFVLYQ
Structure (SMILES),IC50 (5'-nucleotidase [2]) [nM],other results
C[C@@H](Nc1nc(Cl)nc2c1ncn2[C@@H]1O[C@H](CS(=O)(=O)CP(=O)(O)O)[C@@H](O)[C@H]1O)c1ccccc1,–,IC50 (5'-nucleotidase [1]): < 10 nM
O=c1[nH]cc(-c2cc([C@H]3CC3(F)F)c(Cl)nn2)c(=O)[nH]1,< 62,–
CCOC(=O)C(OC[C@H]1C[C@@H](n2nnc3c(NC[C@@H]4CCOC4)nc(Cl)nc32)[C@H](O)[C@@H]1O)P(=O)(O)O (some centres undefined),–,IC50 (5'-nucleotidase [3]): < 100 nM
O=c1[nH]cc(-c2cc(C3CCCC3)c(Cl)nn2)c(=O)[nH]1,< 62,–
Cc1nnc(-c2c[nH]c(=O)[nH]c2=O)cc1[C@H]1C[C@@H]1C(C)(F)F,< 62,–
O=c1[nH]cc(-c2cc([C@H]3C[C@@H]3C(F)F)cnn2)c(=O)[nH]1,< 62,–
O=c1[nH]cc(-c2cc(C3CC(F)(F)C3)c(Cl)nn2)c(=O)[nH]1,< 62,–
CCCCSc1nc2c(N)ncnc2n1[C@@H]1O[C@H](COP(=O)(O)OP(=O)(O)OP(=O)(O)O)[C@@H](O)[C@H]1O,–,Ki [4]: 800 nM; IC50 [5]: 5600 nM
CCCCSc1nc2c(N)ncnc2n1[C@@H]1O[C@H](COP(=O)(O)OP(=O)(O)O)[C@@H](O)[C@H]1O,–,IC50 [5]: 28000 nM; Ki [6]: 900 nM
COc1nnc(-c2c[nH]c(=O)[nH]c2=O)cc1C1CC(C)(C)C1,< 62,–
Cc1cc(-c2ccc(/N=N/c3ccc4c(S(=O)(=O)O)cc(S(=O)(=O)O)c(N)c4c3O)c(C)c2)ccc1/N=N/c1ccc2c(S(=O)(=O)O)cc(S(=O)(=O)O)c(N)c2c1O,–,inhibition (Rattus norvegicus): 97.2%
N#Cc1nnc(-c2c[nH]c(=O)[nH]c2=O)cc1C1CCCC1,< 62,–
COc1nnc(-c2c[nH]c(=O)[nH]c2=O)cc1C1CCCCC1,< 62,–
Nc1c(S(=O)(=O)O)cc(Nc2ccc(Nc3nc(Cl)nc(Nc4ccc(S(=O)(=O)O)c(S(=O)(=O)O)c4)n3)c(S(=O)(=O)O)c2)c2c1C(=O)c1ccccc1C2=O,–,Ki [7]: 20000 nM; Ki [8]: 24200 nM; Ki [9]: 1100 nM
COc1nnc(-c2c[nH]c(=O)[nH]c2=O)cc1C1CC1,< 62,–
Cc1nnc(-c2c[nH]c(=O)[nH]c2=O)cc1[C@H]1C[C@@H]1CC(C)C,< 62,–

# Second part, led by results:
IC50 (5'-nucleotidase [2]) [nM],Structure (SMILES),other results
< 62,N#Cc1nnc(-c2c[nH]c(=O)[nH]c2=O)cc1C1CC1,–
< 62,CC[C@H]1C[C@@H]1c1cc(-c2c[nH]c(=O)[nH]c2=O)nnc1C,–
< 62,CC1(C)CC(c2cc(-c3c[nH]c(=O)[nH]c3=O)nnc2Cl)C1,–
< 62,CC(F)(F)[C@H]1C[C@@H]1c1cc(-c2c[nH]c(=O)[nH]c2=O)nnc1Cl,–
